# Values of other authors in patent US12478681B2, “Non-activated, amorphous, pH neutral, two-part bedside-ready clay delivery system that treats pathogen infections in humans and animals” (priority 2019, dated 2025).
substance,measurement,value
elemental iron,"Oral dose that can cause severe toxicity, morbidity and mortality",> 60 mg/kg
same,Oral dose that can have toxicity symptoms,20 to 60 mg/kg
same,Oral dose that is non-toxic,< 20 mg/kg
